Results from PMC3382171 (PLoS ONE, 2012).

Experiments:
Test in all cases: biochemical
[1] = target: T1, EF2K (Homo sapiens, UniProt O00418); details: read-out: Dundee KSS % inhibition at 1uM
T1 construct: gene EEF2K
Experimental: (§1) The METi and RAFi were screened against kinase panels (SelectScreen, Invitrogen; University of Dundee, Division of Signal Transduction Therapy, UK; Upstate Biotechnology/Millipore, Billerica, MA). In these selectivity assays the concentration of ATP was set to the Km value of ATP for each kinase tested to allow for a relative potency comparison between the various kinases. The compounds were tested at 1 µM final concentration. […] (A) Kinase selectivity screen (KSS) performed at Upstate Biotechnology. […] (B) KSS performed at University of Dundee (Division of Signal Transduction Therapy). […] (PDF) Click here for additional data file.

[2] = target: T2, ERK8 (Homo sapiens, UniProt Q8TD08); details: read-out: Dundee KSS % inhibition at 1uM
T2 construct: gene MAPK15
Experimental: as §1

[3] = target: IGF1R (Homo sapiens, UniProt P08069); details: read-out: Upstate KSS % inhibition at 1uM
Experimental: as §1

[4] = target: T3, IKKbeta (Homo sapiens, UniProt O14920); details: read-out: Dundee KSS % inhibition at 1uM
T3 construct: gene IKBKB
Experimental: as §1

[5] = target: T4, JNK3 (Homo sapiens, UniProt P53779); details: read-out: Dundee KSS % inhibition at 1uM
T4 construct: gene MAPK10
Experimental: as §1

[6] = target: MAPK1/ERK2 (Homo sapiens, UniProt P28482); details: read-out: Dundee KSS % inhibition at 1uM
Experimental: as §1

[7] = target: T5, MAPKAP-K1a (Homo sapiens, UniProt Q15418); details: read-out: Dundee KSS % inhibition at 1uM
T5 construct: gene RPS6KA1
Experimental: as §1

[8] = target: MARK3 (Homo sapiens, UniProt P27448); details: read-out: Dundee KSS % inhibition at 1uM
Experimental: as §1

[9] = target: T6, MLCK (Homo sapiens, UniProt Q15746); details: read-out: Dundee KSS % inhibition at 1uM
T6 construct: gene MYLK
Experimental: as §1

[10] = target: T7, MNK1 (Homo sapiens, UniProt Q9BUB5); details: read-out: Dundee KSS % inhibition at 1uM
T7 construct: gene MKNK1
Experimental: as §1

[11] = target: T8, MST2 (Homo sapiens, UniProt Q13188); details: read-out: Dundee KSS % inhibition at 1uM
T8 construct: gene STK3
Experimental: as §1

[12] = target: NEK7 (Homo sapiens, UniProt Q8TDX7); details: read-out: Dundee KSS % inhibition at 1uM
Experimental: as §1

[13] = target: T9, P70S6K (Homo sapiens, UniProt P23443); details: read-out: Dundee KSS % inhibition at 1uM
T9 construct: gene RPS6KB1
Experimental: as §1

[14] = target: PBK (Homo sapiens, UniProt Q96KB5); details: read-out: Dundee KSS % inhibition at 1uM
Experimental: as §1

[15] = target: mouse LCK (Mus musculus, UniProt P06240); details: read-out: Dundee KSS % inhibition at 1uM
Experimental: as §1

[16] = target: rat DYRK1A (Rattus norvegicus, UniProt Q63470); details: read-out: Dundee KSS % inhibition at 1uM
Experimental: as §1

[17] = target: T10, rat ROCKII (Rattus norvegicus, UniProt Q62868); details: read-out: Dundee KSS % inhibition at 1uM
T10 construct: gene Rock2
Experimental: as §1

[18] = target: BTK (Homo sapiens, UniProt Q06187); details: read-out: Upstate KSS % inhibition at 1uM
Experimental: as §1, with “In” for “The METi and RAFi were screened against kinase panels (SelectScreen, Invitrogen; University of Dundee, Division of Signal Transduction Therapy, UK; Upstate Biotechnology/Millipore, Billerica, MA). In”

[19] = target: CDK1/cyclinB (Homo sapiens, UniProt P06493); details: read-out: Upstate KSS % inhibition at 1uM
Experimental: as §1, with “In” for “The METi and RAFi were screened against kinase panels (SelectScreen, Invitrogen; University of Dundee, Division of Signal Transduction Therapy, UK; Upstate Biotechnology/Millipore, Billerica, MA). In”

[20] = target: DDR2 (Homo sapiens, UniProt Q16832); details: read-out: Upstate KSS % inhibition at 1uM
Experimental: as §1, with “In” for “The METi and RAFi were screened against kinase panels (SelectScreen, Invitrogen; University of Dundee, Division of Signal Transduction Therapy, UK; Upstate Biotechnology/Millipore, Billerica, MA). In”

[21] = target: HIPK2 (Homo sapiens, UniProt Q9H2X6); details: read-out: Upstate KSS % inhibition at 1uM
Experimental: as §1, with “In” for “The METi and RAFi were screened against kinase panels (SelectScreen, Invitrogen; University of Dundee, Division of Signal Transduction Therapy, UK; Upstate Biotechnology/Millipore, Billerica, MA). In”

[22] = target: IRAK4 (Homo sapiens, UniProt Q9NWZ3); details: read-out: Upstate KSS % inhibition at 1uM
Experimental: as §1, with “In” for “The METi and RAFi were screened against kinase panels (SelectScreen, Invitrogen; University of Dundee, Division of Signal Transduction Therapy, UK; Upstate Biotechnology/Millipore, Billerica, MA). In”

[23] = target: Lyn (Homo sapiens, UniProt P07948); details: read-out: Upstate KSS % inhibition at 1uM
Experimental: as §1, with “In” for “The METi and RAFi were screened against kinase panels (SelectScreen, Invitrogen; University of Dundee, Division of Signal Transduction Therapy, UK; Upstate Biotechnology/Millipore, Billerica, MA). In”

[24] = target: T11, MAPK2 (Homo sapiens, UniProt P28482); details: read-out: Upstate KSS % inhibition at 1uM
T11 construct: gene MAPK1
Experimental: as §1, with “In” for “The METi and RAFi were screened against kinase panels (SelectScreen, Invitrogen; University of Dundee, Division of Signal Transduction Therapy, UK; Upstate Biotechnology/Millipore, Billerica, MA). In”

[25] = target: T12, MKK6 (Homo sapiens, UniProt P52564); details: read-out: Upstate KSS % inhibition at 1uM
T12 construct: gene MAP2K6
Experimental: as §1, with “In” for “The METi and RAFi were screened against kinase panels (SelectScreen, Invitrogen; University of Dundee, Division of Signal Transduction Therapy, UK; Upstate Biotechnology/Millipore, Billerica, MA). In”

[26] = target: T13, MNK2 (Homo sapiens, UniProt Q9HBH9); details: read-out: Upstate KSS % inhibition at 1uM
T13 construct: gene MKNK2
Experimental: as §1, with “In” for “The METi and RAFi were screened against kinase panels (SelectScreen, Invitrogen; University of Dundee, Division of Signal Transduction Therapy, UK; Upstate Biotechnology/Millipore, Billerica, MA). In”

[27] = target: T14, PKBbeta (Homo sapiens, UniProt P31751); details: read-out: Upstate KSS % inhibition at 1uM
T14 construct: gene AKT2
Experimental: as §1, with “In” for “The METi and RAFi were screened against kinase panels (SelectScreen, Invitrogen; University of Dundee, Division of Signal Transduction Therapy, UK; Upstate Biotechnology/Millipore, Billerica, MA). In”

[28] = target: T15, PKCalpha (Homo sapiens, UniProt P17252); details: read-out: Upstate KSS % inhibition at 1uM
T15 construct: gene PRKCA
Experimental: as §1, with “In” for “The METi and RAFi were screened against kinase panels (SelectScreen, Invitrogen; University of Dundee, Division of Signal Transduction Therapy, UK; Upstate Biotechnology/Millipore, Billerica, MA). In”

[29] = target: T16, PKG1alpha (Homo sapiens, UniProt Q13976); details: read-out: Upstate KSS % inhibition at 1uM
T16 construct: gene PRKG1; isoform alpha
Experimental: as §1, with “In” for “The METi and RAFi were screened against kinase panels (SelectScreen, Invitrogen; University of Dundee, Division of Signal Transduction Therapy, UK; Upstate Biotechnology/Millipore, Billerica, MA). In”

[30] = target: T17, Rse (Homo sapiens, UniProt Q06418); details: read-out: Upstate KSS % inhibition at 1uM
T17 construct: gene TYRO3
Experimental: as §1, with “In” for “The METi and RAFi were screened against kinase panels (SelectScreen, Invitrogen; University of Dundee, Division of Signal Transduction Therapy, UK; Upstate Biotechnology/Millipore, Billerica, MA). In”

[31] = target: T18, Snk (Homo sapiens, UniProt Q9NYY3); details: read-out: Upstate KSS % inhibition at 1uM
T18 construct: gene PLK2
Experimental: as §1, with “In” for “The METi and RAFi were screened against kinase panels (SelectScreen, Invitrogen; University of Dundee, Division of Signal Transduction Therapy, UK; Upstate Biotechnology/Millipore, Billerica, MA). In”

BTK, sequence (Q06187 whole entry): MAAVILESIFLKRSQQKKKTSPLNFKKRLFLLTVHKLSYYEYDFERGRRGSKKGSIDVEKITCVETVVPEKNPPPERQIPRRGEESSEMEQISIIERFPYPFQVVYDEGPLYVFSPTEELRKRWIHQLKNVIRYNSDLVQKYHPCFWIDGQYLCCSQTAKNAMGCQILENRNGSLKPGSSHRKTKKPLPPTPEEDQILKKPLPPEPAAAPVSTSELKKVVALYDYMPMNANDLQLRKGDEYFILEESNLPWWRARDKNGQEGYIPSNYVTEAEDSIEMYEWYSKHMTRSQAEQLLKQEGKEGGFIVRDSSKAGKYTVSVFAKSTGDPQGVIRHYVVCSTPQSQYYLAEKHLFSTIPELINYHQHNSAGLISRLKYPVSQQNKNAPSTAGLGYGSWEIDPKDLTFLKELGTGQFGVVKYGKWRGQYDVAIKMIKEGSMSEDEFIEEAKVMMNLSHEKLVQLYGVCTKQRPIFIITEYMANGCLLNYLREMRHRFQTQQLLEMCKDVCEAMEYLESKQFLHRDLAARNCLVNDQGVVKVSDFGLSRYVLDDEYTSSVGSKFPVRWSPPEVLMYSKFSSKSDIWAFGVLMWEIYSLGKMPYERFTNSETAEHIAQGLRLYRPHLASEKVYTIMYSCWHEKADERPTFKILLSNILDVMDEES
IGF1R, sequence (P08069 31-736): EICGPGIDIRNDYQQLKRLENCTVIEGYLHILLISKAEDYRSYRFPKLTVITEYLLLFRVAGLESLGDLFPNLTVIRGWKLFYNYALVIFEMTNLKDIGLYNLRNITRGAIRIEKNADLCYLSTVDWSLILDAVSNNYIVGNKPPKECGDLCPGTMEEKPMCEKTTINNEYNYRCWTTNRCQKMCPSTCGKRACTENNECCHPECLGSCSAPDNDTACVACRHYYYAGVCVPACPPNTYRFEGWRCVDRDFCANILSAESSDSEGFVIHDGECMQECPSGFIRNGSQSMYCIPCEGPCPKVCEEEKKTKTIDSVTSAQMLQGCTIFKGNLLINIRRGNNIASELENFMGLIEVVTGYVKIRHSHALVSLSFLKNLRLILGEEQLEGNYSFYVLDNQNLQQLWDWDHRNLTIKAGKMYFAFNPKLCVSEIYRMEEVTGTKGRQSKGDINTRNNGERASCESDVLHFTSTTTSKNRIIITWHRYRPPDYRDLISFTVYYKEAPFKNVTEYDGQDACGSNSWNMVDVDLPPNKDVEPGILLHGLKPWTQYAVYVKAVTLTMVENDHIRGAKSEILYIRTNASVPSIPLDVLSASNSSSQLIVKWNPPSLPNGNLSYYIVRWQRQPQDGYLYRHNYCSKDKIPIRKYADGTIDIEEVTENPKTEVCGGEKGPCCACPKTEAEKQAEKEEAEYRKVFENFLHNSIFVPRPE
IGF1R, sequence (P08069 741-1367): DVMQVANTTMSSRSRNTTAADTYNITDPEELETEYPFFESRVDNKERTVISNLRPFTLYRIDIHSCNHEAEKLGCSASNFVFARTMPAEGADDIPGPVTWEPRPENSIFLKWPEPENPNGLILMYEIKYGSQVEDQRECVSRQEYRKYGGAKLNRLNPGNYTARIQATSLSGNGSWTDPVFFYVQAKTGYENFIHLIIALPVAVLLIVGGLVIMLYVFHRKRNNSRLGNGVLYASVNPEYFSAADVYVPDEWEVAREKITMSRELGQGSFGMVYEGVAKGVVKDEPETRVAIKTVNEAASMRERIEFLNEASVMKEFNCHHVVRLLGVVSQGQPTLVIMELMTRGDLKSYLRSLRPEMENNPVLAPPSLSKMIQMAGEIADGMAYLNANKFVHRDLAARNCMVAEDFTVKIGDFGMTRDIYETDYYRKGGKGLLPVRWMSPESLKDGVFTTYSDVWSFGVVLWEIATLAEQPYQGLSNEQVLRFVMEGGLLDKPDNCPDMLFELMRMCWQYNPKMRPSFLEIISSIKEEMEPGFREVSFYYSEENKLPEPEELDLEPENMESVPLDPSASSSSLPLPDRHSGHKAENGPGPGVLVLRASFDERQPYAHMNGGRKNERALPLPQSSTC
T3 sequence (O14920 whole entry): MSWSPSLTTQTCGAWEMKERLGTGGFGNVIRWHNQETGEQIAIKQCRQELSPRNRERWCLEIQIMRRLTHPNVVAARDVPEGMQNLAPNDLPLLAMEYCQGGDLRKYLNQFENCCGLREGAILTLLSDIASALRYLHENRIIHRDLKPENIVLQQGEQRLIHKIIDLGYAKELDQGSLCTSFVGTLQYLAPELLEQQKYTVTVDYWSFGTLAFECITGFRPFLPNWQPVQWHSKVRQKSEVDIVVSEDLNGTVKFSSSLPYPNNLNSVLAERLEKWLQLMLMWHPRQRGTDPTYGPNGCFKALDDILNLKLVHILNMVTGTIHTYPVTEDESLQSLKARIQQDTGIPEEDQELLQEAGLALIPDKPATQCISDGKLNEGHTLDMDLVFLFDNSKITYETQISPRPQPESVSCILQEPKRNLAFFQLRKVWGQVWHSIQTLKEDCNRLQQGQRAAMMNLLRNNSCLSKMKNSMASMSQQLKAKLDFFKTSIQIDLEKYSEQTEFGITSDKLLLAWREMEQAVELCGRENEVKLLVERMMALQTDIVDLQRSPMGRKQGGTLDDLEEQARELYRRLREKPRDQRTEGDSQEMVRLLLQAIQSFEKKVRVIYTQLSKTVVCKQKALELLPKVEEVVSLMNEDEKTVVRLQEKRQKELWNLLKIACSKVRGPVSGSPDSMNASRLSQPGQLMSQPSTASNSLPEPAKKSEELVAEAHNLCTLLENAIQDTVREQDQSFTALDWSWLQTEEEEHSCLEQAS
T1 sequence (O00418 whole entry): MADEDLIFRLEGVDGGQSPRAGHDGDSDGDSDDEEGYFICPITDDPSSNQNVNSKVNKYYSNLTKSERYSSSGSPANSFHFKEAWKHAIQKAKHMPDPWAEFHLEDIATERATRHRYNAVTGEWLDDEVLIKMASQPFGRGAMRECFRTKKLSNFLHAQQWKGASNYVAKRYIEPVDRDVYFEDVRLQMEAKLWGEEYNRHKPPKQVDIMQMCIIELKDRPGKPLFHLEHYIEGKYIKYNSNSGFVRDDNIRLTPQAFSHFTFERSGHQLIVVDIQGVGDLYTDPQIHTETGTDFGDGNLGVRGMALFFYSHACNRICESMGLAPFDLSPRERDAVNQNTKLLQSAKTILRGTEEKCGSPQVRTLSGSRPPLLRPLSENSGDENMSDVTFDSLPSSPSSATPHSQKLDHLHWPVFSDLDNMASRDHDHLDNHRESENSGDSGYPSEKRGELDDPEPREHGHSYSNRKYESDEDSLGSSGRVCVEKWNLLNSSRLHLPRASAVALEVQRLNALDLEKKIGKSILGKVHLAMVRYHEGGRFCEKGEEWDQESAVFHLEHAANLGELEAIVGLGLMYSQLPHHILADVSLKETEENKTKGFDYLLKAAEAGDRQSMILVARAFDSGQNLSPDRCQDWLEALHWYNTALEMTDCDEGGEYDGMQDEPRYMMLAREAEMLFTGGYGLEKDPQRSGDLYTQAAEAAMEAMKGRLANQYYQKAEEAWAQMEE
T2 sequence (Q8TD08 whole entry): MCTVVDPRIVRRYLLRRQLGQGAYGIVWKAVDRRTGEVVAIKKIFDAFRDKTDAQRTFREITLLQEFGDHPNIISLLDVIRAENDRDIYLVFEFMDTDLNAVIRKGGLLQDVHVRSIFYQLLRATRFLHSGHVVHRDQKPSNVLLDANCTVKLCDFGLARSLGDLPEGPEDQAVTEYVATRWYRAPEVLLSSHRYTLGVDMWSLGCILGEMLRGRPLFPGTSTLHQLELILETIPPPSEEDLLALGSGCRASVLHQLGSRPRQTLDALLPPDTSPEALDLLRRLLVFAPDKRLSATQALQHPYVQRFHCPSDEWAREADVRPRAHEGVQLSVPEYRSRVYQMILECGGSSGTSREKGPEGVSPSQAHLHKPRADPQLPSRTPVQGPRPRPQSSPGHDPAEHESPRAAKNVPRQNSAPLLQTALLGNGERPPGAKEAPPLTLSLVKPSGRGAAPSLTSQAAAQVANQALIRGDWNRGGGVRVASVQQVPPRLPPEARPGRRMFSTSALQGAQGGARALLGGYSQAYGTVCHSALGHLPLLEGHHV
T17 sequence (Q06418 whole entry): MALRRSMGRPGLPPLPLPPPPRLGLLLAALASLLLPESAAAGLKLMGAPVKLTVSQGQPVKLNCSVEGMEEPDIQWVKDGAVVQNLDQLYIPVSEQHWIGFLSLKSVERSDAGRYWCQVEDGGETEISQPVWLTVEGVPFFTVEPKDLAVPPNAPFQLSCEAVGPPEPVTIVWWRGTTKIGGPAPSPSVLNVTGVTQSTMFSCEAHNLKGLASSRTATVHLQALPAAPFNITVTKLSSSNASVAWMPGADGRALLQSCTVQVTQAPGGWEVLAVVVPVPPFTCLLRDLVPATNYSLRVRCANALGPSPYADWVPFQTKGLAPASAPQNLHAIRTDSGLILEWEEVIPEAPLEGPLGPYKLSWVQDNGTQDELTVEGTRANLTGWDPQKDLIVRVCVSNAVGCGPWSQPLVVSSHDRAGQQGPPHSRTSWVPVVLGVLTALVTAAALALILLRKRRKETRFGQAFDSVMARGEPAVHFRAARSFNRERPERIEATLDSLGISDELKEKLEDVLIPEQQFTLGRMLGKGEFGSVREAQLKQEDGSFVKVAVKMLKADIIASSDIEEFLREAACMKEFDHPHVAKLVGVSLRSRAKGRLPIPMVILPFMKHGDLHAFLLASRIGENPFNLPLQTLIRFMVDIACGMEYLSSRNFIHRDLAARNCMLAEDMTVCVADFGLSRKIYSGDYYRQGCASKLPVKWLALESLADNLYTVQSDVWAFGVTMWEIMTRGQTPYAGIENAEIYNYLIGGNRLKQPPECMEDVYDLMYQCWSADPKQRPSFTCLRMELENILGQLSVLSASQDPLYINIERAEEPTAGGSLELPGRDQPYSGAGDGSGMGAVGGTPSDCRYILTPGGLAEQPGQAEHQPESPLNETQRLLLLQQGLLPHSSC

inhibition at 1 µM [1]: -13.1% | inhibition at 1 µM [3]: 103% | inhibition at 1 µM [4]: 22.5% | inhibition at 1 µM [5]: -2.36% | inhibition at 1 µM [6]: -13% | inhibition at 1 µM [7]: 3.34% | inhibition at 1 µM [8]: 4.4% | inhibition at 1 µM [9]: 9.24% | inhibition at 1 µM [10]: -8.48% | inhibition at 1 µM [11]: 6.16% | inhibition at 1 µM [12]: -7.5% | inhibition at 1 µM [13]: -0.67% | inhibition at 1 µM [14]: 5.14% | inhibition at 1 µM [15]: 15.7% | inhibition at 1 µM [16]: 2.39% | inhibition at 1 µM [17]: 12.8% | inhibition at 1 µM [18]: -13% | inhibition at 1 µM [19]: -7% | inhibition at 1 µM [20]: 0% | inhibition at 1 µM [21]: 8% | inhibition at 1 µM [22]: 11% | inhibition at 1 µM [23]: 2% | inhibition at 1 µM [24]: -7% | inhibition at 1 µM [25]: -13% | inhibition at 1 µM [26]: 0% | inhibition at 1 µM [27]: -6% | inhibition at 1 µM [28]: -7% | inhibition at 1 µM [29]: 3% | inhibition at 1 µM [30]: 4% | inhibition at 1 µM [31]: -11%
Compound: OCCn1cc(-c2cnc3nnn(Cc4ccc5ncccc5c4)c3n2)cn1 [METi, PF-04217903]
inhibition at 1 µM [2]: 14.8%
